Source: patent EP4692091A1, “CA[…], AND PHARMACEUTICAL COMPOSITION, PREPARATION METHOD THEREFOR AND USE THEREOF” (Changchun Genescience Pharmaceutical Co., Ltd., priority 2023, dated 2024)

How the values were obtained:
[1] = Stability of compounds in human plasma; type: in vitro ADME; details: 37°C, 5 µmol/L; for Residual percentage (%): 0 h; for remaining at 1 h, 5 µM / remaining at 2 h, 5 µM / remaining at 6 h, 5 µM / remaining at 24 h, 5 µM: read-out: Residual percentage (%)
Description: • (1) 199 µL of human plasma was added to the culture plate of each cell. The culture plate was preheated to 37°C, and kept at this temperature for 15 min. • (2) After preincubation, 1 µL of 1 mmol/L each test compound and 1 µL of 1 mmol/L control compound were added to 199 µL of plasma, so that a final concentration of each test compound was 5 µmol/L and that of the control compound was 5 µmol/L. The final concentration of the organic solvent was 0.5%. The experiment would be duplicated twice. • (3) Reaction samples were incubated at 37°C. • (4) The reaction was stopped by adding 600 µL of cold methanol containing the internal standard at 0, 1, 2, 6, and 24 h. Each sample was vortex mixed for 10 min, and then centrifuged at 3,220 g for 30 min to precipitate the protein. […] Based on the signal response and peak shapes of liquid chromatography-mass spectrometry (LC-MS), the supernatant would be diluted with ultrapure water.
All calculations were performed using Microsoft Excel. The peak area ratio was determined from the chromatogram of extracted ions. The percentage of compounds remaining at each time point was calculated as per the following formula: Residual percentagetmin (%) = peak area ratiotmin /peak areat0 × 100 [formula]

[2] = Stability of compounds in human plasma; type: in vitro ADME; details: 37°C, 5 µmol/L, read-out: Residual percentage (%)
[3] = test system: NCI-N87; experiment: Inhibition of proliferation of NCI-N87 cells by test compounds (CellTiter-Glo, 72 h); type: cell-based; details: NCI-N87, 72 h incubation
Description: 3: Test method (1) Cell plating: first, tumor cells NCI-N87 were cultured using a corresponding culture medium, trypsinized, centrifuged, resuspended for counting, adjusted to an appropriate concentration, and then plated on a 384-well plate. (2) Co-incubation of the compounds and tumor cells: after the cells adhered to the wall, 100 nL of a diluted bioactive substance (test compound) was added to the cell culture plate using ECHO, the final concentration of DMSO in wells of the cell plate was 0.33%, and the incubation was performed in an incubator at 37°C with […] for 72 h. (3) After the incubation was complete, 30 µL of a CTG reagent (CelltiterGlo kit) was added to each well. The culture was oscillated on a fast oscillator for 2 min, centrifuged at 1,000 rpm for 1 min, and kept away from light at room temperature for 30 min. The chemiluminescence signal value was read using an Envision instrument. (4) Cell viability detection: IC50 was calculated using GraphPad Prism 8 software, and the IC50 of the compounds was obtained using the following nonlinear fitting formula (see Table 3) : 11. Y=Bottom+(Top-Bottom)/(1+10^((LogIC50-X)*HillSlope)) 12. […] Table 3 Antiproliferative activity of test compounds on cells NCI-N87

[4] = test system: SK-BR-3; experiment: Inhibition of proliferation of SK-BR-3 cells by compounds (CellTiter-Glo, 72 h); type: cell-based; details: SK-BR-3, 72 h incubation
Description: 3: Test method (1) Cell plating: first, tumor cells SK-BR-3 were cultured using a corresponding culture medium, trypsinized, centrifuged, resuspended for counting, adjusted to an appropriate concentration, and then plated on a 384-well plate. (2) Co-incubation of the compounds and tumor cells: after the cells adhered to the wall, 100 nL of a diluted bioactive substance (test compound) was added to the cell culture plate using ECHO, the final concentration of DMSO in wells of the cell plate was 0.33%, and the incubation was performed in an incubator at 37°C with 5% CO2 for 72 h. (3) After the incubation was complete, 30 µL of a CTG reagent (CelltiterGlo kit) was added to each well. The culture was oscillated on a fast oscillator for 2 min, centrifuged at 1,000 rpm for 1 min, and kept away from light at room temperature for 30 min. The chemiluminescence signal value was read using an Envision instrument. (4) Cell viability detection: IC50 was calculated using GraphPad Prism 8 software, and the IC50 of the compounds was obtained using the following nonlinear fitting formula (see Table 1) : 1. Y=Bottom+(Top-Bottom)/(1+10^((LogIC50-X)*HillSlope)) 2. […] Table 1 Antiproliferative activity of test compounds on SK-BR-3

[5] = test system: MDA-MB-468; experiment: Inhibition of proliferation of MDA-MB-468 cells by test compounds (CellTiter-Glo, 72 h); type: cell-based; details: MDA-MB-468, 72 h incubation
Description: 3: Test method • (1) Cell plating: first, tumor cells MDA-MB-468 were cultured using a corresponding culture medium, trypsinized, centrifuged, resuspended for counting, adjusted to an appropriate concentration, and then plated on a 384-well plate. • (2) Co-incubation of the compounds and tumor cells: after the cells adhered to the wall, 100 nL of a diluted bioactive substance (test compound) was added to the cell culture plate using ECHO, the final concentration of DMSO in wells of the cell plate was 0.33%, and the incubation was performed in an incubator at 37°C with […] for 72 h. • (3) After the incubation was complete, 30 µL of a CTG reagent (CelltiterGlo kit) was added to each well. The culture was oscillated on a fast oscillator for 2 min, centrifuged at 1,000 rpm for 1 min, and kept away from light at room temperature for 30 min. The chemiluminescence signal value was read using an Envision instrument. • (4) Cell viability detection: IC50 was calculated using GraphPad Prism 8 software, and the IC50 of the compounds was obtained using the following nonlinear fitting formula (see Table 2): • 6. Y=Bottom+(Top-Bottom)/(1+10^((LogIC50-X)*HillSlope)) • 7. […] Table 2 Antiproliferative activity of test compounds on MDA-MB-468

Row | SMILES | Residual percentage (%) [1] | remaining at 1 h, 5 µM [1] | remaining at 2 h, 5 µM [1] | remaining at 6 h, 5 µM [1] | remaining at 24 h, 5 µM [1] | remaining at 4 h, 5 µM [2] | IC50 ([3]; Homo sapiens, NCI-N87, 72 h) | IC50 ([4]; Homo sapiens, SK-BR-3, 72 h) | IC50 ([5]; Homo sapiens, MDA-MB-468, 72 h) | IC50 [3] | IC50 [4] | IC50 [5]
1 | CC[C@@]1(O)C(=O)OCc2c1cc1n(c2=O)Cc2c-1nc1cc(F)c(C)c3c1c2C(NC(=O)C[C@@H](C)O)CCC3 (single isomer, unassigned) [6-2] | 100.00% | 96.6% | 86.2% | 89% | 87% | 93.7% | 6.8 nM | 7.3 nM | 6.5 nM | – | – | –
2 | CC[C@@]1(O)C(=O)OCc2c1cc1n(c2=O)Cc2c-1nc1cc(F)c(C3CC3)c3c1c2C(NC(=O)C[C@@H](C)O)CC3 (single isomer, unassigned) [17-2] | 100.00% | 90.1% | 89.3% | 97.1% | 102% | 93.8% | – | – | – | 5.3 nM | 6.6 nM | 8.1 nM
3 | CC[C@@]1(O)C(=O)OCc2c1cc1n(c2=O)Cc2c-1nc1cc(F)c(C)c3c1c2[C@@H](NC(=O)[C@@H](O)C1CC1)CCC3 [11-2, (S)-2-cyclopropyl-N-((1S,10S)-10-ethyl-6-fluoro-10-hydroxy-5-methyl-11,14-dioxo-1,2,3,4,10,11,14,16-octahydro-13H-cyclohepta[de]pyrano[3',4':6,7]indolizino[1,2-b]quinolin-1-yl)-2-hydroxyacetamide] | 100.00% | 96.8% | 92.1% | 94.5% | 88.8% | 93.4% | – | – | – | – | – | –
